# Measurements reported in patent US20130251743A1, “Fungal extracts and uses thereof” (CERMEDI OY, priority 2010, published 2013).
# System: human retinal pigment epithelial cells (hRPE)
# Test: WST-1 cytotoxicity test of hRPE cells exposed to hydrogen peroxide-induced oxidative stress
# Assay type: cell-based
# Settings: ARPE-19 cells exposed to H2O2
# Description: Human ARPE-19 retinal pigment epithelial cells (RPE) were obtained from American Type Culture Collection (USA). The cells were grown to confluency in a standard incubator in appropriate Dulbecco's MEM/Nut MIX F-12 medium (Gibco, UK). Oxidative stress was applied to the cells (1×10^4 cells/well) by using various concentrations of H2O2. Cytotoxicity was evaluated by two cytotoxicity tests, WST-1 test. WST-1 test reagent was purchased from Roche, Basel, Switzerland. WST-1 test is based on the cleavage of the tetrazolium salt WST-1 (4-*3-(4-iodophenyl)-2-(4-nitrophenyl)-2H-5-tetrazolio*-1,3-benzene disulfonate, slightly red) to formazan (dark red) by various mitochondrial dehydrogenase enzymes. The mean optical density values corresponding to the non-treated controls were taken as 100%. The results were expressed as percentages of the optical density of treated vs. untreated controls. Dose-response curves were drawn from the results expressed as mean±standard error of mean (SEM) by Graph Pad Prism software (GraphPad™, San Diego, US) using non-linear regression analysis. […] The statistical significance of the differences between the cultures exposed to H2O2 and tested extracts without or with serum was determined with the Student's two-tailed t-test (GraphPad Prism). […]
smiles,measurement,value
"COc1cc(C[C@@H](CO)[C@H](CO)Cc2ccc(O)c(OC)c2)ccc1O [secoisolariciresinol (SECO), secoisolariciresinol]",protection of hRPE cells against oxidative damage (WST-1 test),did not protect hRPE cells from oxidative damage
